Data taken from patent publication US20250102527A1, “METHOD AND DEVICE FOR DETERMINING THE VITAMIN STATUS” (TECHNISCHE UNIVERSITÄT MÜNCHEN, priority 2022, published 2025).
Entries after “also recorded” stand apart in the source; their conditions may differ.

Tests used:
[1] = molecular target: T1, recombinant human PLP binding protein (PLPBP, UniProt 094903) (Homo sapiens, UniProt O94903); test: Gel-based labeling of recombinant PLPBP with PLxP probes (fluorescence SDS-PAGE); conditions: for labeling of recombinant PLPBP by PLP cofactor mimic: 1 μM PLPBP, 100 μM probe, 1 h r.t., NaBH4 reduction, click to Cy5, fluorescence SDS-Page
T1 construct: made in house; host or cells: E. coli Rosetta2 (DE3)
T1 sequence (O94903 whole entry): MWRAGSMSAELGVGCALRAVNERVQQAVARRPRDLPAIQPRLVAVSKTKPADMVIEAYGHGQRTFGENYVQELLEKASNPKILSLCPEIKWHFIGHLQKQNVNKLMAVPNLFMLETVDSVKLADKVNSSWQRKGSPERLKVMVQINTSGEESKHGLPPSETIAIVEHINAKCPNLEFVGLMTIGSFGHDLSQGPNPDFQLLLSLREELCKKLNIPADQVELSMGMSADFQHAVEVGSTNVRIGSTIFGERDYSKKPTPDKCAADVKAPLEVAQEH
Method: Conditions: 1 μM PLPBP, 100 μM probe (incubation 1 h, r.t.), reduction (NaBH4), precipitation (Aceton), wash (MeOH), redissolve in PBS+0.2% SDS, click to Cy5. Analysis via fluorescence SDS-Page.
Structures of the different PLP probes PL1P, PL2P and PL13P (top) that were tested for their labeling efficiency of recombinant PLP binding protein (PLPBP), separately and all three in combination on a fluorescent SDS gel (bottom). The denaturation of PLPBP via increased temperature (heat control, h.c.) prior to labeling with the combination of probes served as negative control. FM=fluorescent marker.
In brief, PLPBP (1 μM in PBS, total volume: 50 μL) was labeled with PLxP probe or mixture of PLxP probes (PL1P, PL2P, PL13P, final conc. 100 μM) at room temperature for 30 min. Upon reduction with […] NaBH4 (1 μl of 250 mM prepared fresh in 0.1 M NaOH) at room temperature for 30 min, proteins were precipitated by adding ice-cold acetone (4× volume) and incubating at −20° C. for at least 1 h. Precipitated proteins were pelletized by centrifugation (18,000×g, 15 min, 4° C.) and washed two times with ice-cold MeOH. For washing, protein pellet is resuspended in 0.2 mL cold methanol (−80° C.) by mild sonication (10 s, 10% intensity) and centrifuged (10 000 rpm, 10 min, 4° C.). Pelletized proteins were resuspended in 50 μl PBS containing […] SDS and Click chemistry was performed by adding 100 μM Cy5 azide (1 μL of 5 mM in DMSO), 100 μM TBTA (3 μL of 1.67 mM in/BuOH/DMSO 80:20), 1 mM TCEP (0.5 μL of 15 mg/mL stock in ddH2O) and 1 mM CuSO4 (1 μL of 50 mM stock in ddH2O) to each sample and incubated for at least 1 h at r.t. Samples were quenched with 2× Lämmli buffer and analysed by SDS-PAGE (12.5% polyacrylamide gels) with subsequent fluorescence scanning.
For this, we selected recombinant human PLP binding protein (PLPBP, UniProt 094903) as a medium abundant model PLP-DE of human erythrocytes.
Conditions: 1 μM PLPBP, 100 μM probe (incubation 1 h, r.t.), reduction (NaBH4), precipitation (aceton), wash (MeOH), redissolve in PBS+0.2% SDS, click to Cy5. Analysis via fluorescence SDS-Page. Results see FIG. 6.

recombinant SHMT1 = molecular target: T2, recombinant SHMT1 (Homo sapiens, UniProt P34896); test: Microarray readout of PL2P probe signal on recombinant SHMT1 preincubated with PLP; format: binding; conditions: apoSHMT1 preincubated with 0.5-4.0 eq PLP, fixed with NaBH4, 100 μM PL2P, click to rhodamine azide
T2 construct: made in house; host or cells: E. coli Rosetta2 (DE3)
T2 sequence (P34896 1-483): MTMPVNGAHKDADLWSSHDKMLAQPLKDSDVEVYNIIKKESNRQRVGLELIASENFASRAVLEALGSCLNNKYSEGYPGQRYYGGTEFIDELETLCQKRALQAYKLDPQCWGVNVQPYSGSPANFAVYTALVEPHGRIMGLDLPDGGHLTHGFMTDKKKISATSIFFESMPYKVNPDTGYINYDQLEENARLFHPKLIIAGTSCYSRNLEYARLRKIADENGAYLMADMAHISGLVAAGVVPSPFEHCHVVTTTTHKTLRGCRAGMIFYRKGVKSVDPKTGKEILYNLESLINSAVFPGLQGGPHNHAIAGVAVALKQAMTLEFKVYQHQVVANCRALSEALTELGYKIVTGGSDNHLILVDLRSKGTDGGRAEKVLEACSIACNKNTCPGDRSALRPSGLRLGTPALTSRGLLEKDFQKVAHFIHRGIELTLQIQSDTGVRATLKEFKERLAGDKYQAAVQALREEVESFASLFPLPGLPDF
Method: FIG. 11. Signal intensity is dependent on saturation level of PLP-DE with PLP. • (A) PLP loading states of recombinant SHMT1 incubated with increasing equivalents (eq) of PLP were determined by intact protein-MS (n=3) as described previously (Hoegl et al., 2018). • (B) Microarray read out of recombinant SHMT1 bound PL2P probe signals preincubated with PLP equivalents in a physiological range of 0.5-4.0 eq. Mean signal intensities of anti-SHMT1 (n=8) corrected to BSA control and error bars (SD) after fluorescent readout of anti-SHMT1 3. Sample preparation according to workflow 3, as described in the Examples.
40 μM apoSHMT1 (25 μL) samples were incubated with increasing amounts of PLP (0 eq., 0.50 eq., 1.00 eq., 4.00 eq., 32.0 eq.) for 1 h at r.t. and subsequently treated with 20 mM NaBH4 (250 mM stock solution in 0.1 M NaOH) for 30 min at r.t. Reduction was quenched by adding cold acetone (4× volume of sample, −20° C.) for at least 1 h. Precipitated proteins were pelletized (10 000 rpm, 15 min, 4° C.) and supernatant was discarded. […] Samples are subsequently incubated and analysed on the microarrays. […]
The samples were analysed in a single colour approach (without secondary antibody incubation) or dual-colour approach (with secondary antibody incubation) using custom microarrays containing antibodies against OAT, SHMT and PLPBP or a subset of these antibodies. […]

labeling of recombinant PLPBP by PLP cofactor mimic [1] | most suitable PLP cofactor mimic for labeling of recombinant PLPBP ([1]; comparison of PL1P, PL2P, PL13P via SDS-Page) | Compound | PL2P probe signal intensity on microarray with increasing PLP saturation of SHMT1 (recombinant SHMT1)
successfully tested | – | C#Cc1ncc(COP(=O)(O)O)c(C=O)c1O [PL1P, (6-ethynyl-4-formyl-5-hydroxypyridin-3-yl)methyl phosphate] | –
– | – | Cc1ncc(COP(=O)(O)O)c(C=O)c1O [PLP, pyridoxal phosphate] | decrease in signal intensity; also recorded: decline in signal intensity
successfully tested | – | (4-formyl-6-methyl-5-(prop-2-yn-1-yloxy)pyridin-3-yl)methyl phosphate [PL13P] | –
successfully tested | most suitable | (6-(but-3-yn-1-yl)-4-formyl-5-hydroxypyridin-3-yl)methyl phosphate [PL2P] | –
